Results as given in patent publication US20200115314A1, “METHOD OF PRODUCING PLASTICIZER AND REDUCING ENERGY CONSUMPTION” (SABIC Global Technologies B.V., priority 2017, published 2020).

What was measured:
Assay type in all cases: physicochemical
[1] = Repeated solubility test for trimellitic anhydride in 2-ethyl hexanol
Protocol: The temperature range for complete dissolution of trimellitic anhydride was further repeated by varying the temperature in a range of 110° C. to 149° C. when the molar ratio of trimellitic anhydride to 2-ethyl hexanol was kept at 1:3.25. About 100 g of trimellitic anhydride was used. When a complete dissolution of trimellitic anhydride was observed, the amount of water formed during the dissolution and total time consumed for dissolution are recorded.

[2] = Solubility tests for trimellitic anhydride in 2-ethyl hexanol
[3] = as above; remark: listed apart in the source
Protocol: Tri octyl trimellitate (TOTM) is one of the most commonly used non-phthalate based plasticizers. Tri octyl trimellitate is produced via esterification reaction between trimellitic anhydride (TMA) and 2-ethyl hexanol (2-EH). According to embodiments of the invention, trimellitic anhydride may be dissolved in 2-ethyl hexanol before it is transferred to an esterification reactor. Thus, the solubility of trimellitic anhydride in 2-ethyl hexanol was tested under various molar ratios of trimellitic anhydride to 2-ethyl hexanol. In this experiment, a hundred grams of trimellitic anhydride was initially added to 2-ethyl hexanol at a molar ratio of 1:1 to form a mixture. The temperature of the mixture was controlled in a range of 110° C. to 150 ° C. Additional 2-ethyl hexanol was gradually added to the mixture to change the molar ratio of trimellitic anhydride to 2-ethyl hexanol until complete dissolution of trimellitic anhydride in 2-ethyl hexanol was observed. The amount of added 2-ethyl hexanol was recorded to obtain a molar ratio needed for the complete dissolution of trimellitic anhydride.

In the case of `O=C(O)c1ccc2c(c1)C(=O)OC2=O` [trimellitic anhydride], the “Time for complete dissolution” value ([1]; about 149 °C, molar ratio about 1:3.25) is reported as 20 to 30 min, the Dissolution ([1]; in 2-ethyl hexanol, TMA:2-EH molar ratio 1:3.25, 110-149 °C) is reported as “Yes” and the “Temperature at which the mixture becomes milky” value ([1]; on cooling, molar ratio 1:3.25) is reported as 60 °C. The “Temperature at which turbidity starts forming in the solution” value ([1]; on cooling, molar ratio 1:3.25) was 65 °C, the “Temperature at which water formation starts” value ([2]; TMA:2-EH molar ratio 1:1, no catalyst) was “at 135 °C” and the “Temperature at which water formation starts” value ([2]; TMA:2-EH molar ratio 1:2, no catalyst) was “at 135 °C”. For the same compound, the “Temperature at which water formation starts” value ([2]; TMA:2-EH molar ratio 1:2.5, no catalyst) was “at 135 °C”, the “Temperature at which water formation starts” value ([2]; TMA:2-EH molar ratio 1:3, no catalyst) was “at 135 °C” and the “Temperature at which water formation started” value ([2]; at each molar ratio, without catalysts) was 135 °C. The Dissolution ([3]; TMA:2-EH molar ratio 1:1, 110-150 °C) was “No”, the Dissolution ([3]; TMA:2-EH molar ratio 1:2, 110-150 °C) was “No” and the Dissolution ([3]; TMA:2-EH molar ratio 1:2.5, 110-150 °C) was “No”. For the same compound, the Dissolution ([3]; TMA:2-EH molar ratio 1:3, 110-150 °C) was “No” and the Dissolution ([3]; TMA:2-EH molar ratio 1:3.25, 110-150 °C) was “Yes”.
